# Results reported in article PMC5318461 (Frontiers in Microbiology, 2017).
# Like-named read-outs stand apart in the source and are kept apart here. Numbered stars: 1 amine (or outer) side, 2 acyl side, 3 side chain; on linkers, the order of the positions; unused ones are H or OH. Bridge positions count the residues as written; N and C are the ends. Square brackets hold non-standard residues; d marks the D form. Peptide text beside a SMILES is read from it. I, II: the chains in the order shown. Actinocin(9to1) = Cc1c2oc3c(C)ccc(C(=O)[*:1])c3nc-2c(C(=O)[*:2])c(N)c1=O; NMeV = CN[C@H](C(=O)O)C(C)C; Sar = CNCC(=O)O
# Legend:
# [1] = system: Leishmania amazonensis promastigote; assay: In vitro activity against L. amazonensis promastigotes (growth inhibition by cell counting; drugs alone and in checkerboard combination); format: cell-based; conditions: isolated drug; for IC50: 72 h, 25°C, ± SD; for IC90: promastigotes
# Protocol: Leishmania amazonensis MHOM/BR/75/Josefa strain was isolated from a human case of cutaneous leishmaniasis by Dr. Cesar A. Cuba, at University of Brasilia, Brazil ([Saraiva et al., 1983]; [Cuba et al., 1985]). These promastigote parasites were maintained in Warren’s medium, consisting of brain heart infusion (Gibco®), hemin (Sigma–Aldrich®), and folic acid (Sigma–Aldrich®), pH 7.2, supplemented with 10% of fetal calf serum (FCS – Invitrogen®) and incubated at 25°C.
# The same procedure was carried out with axenic amastigote forms, using 12-wells microplate. After incubation during 72 h, at 25 and 32°C for promastigote and axenic amastigote forms, respectively, viable cells were counted with hemocytometer supporting.
# Briefly, promastigotes, axenic and intracellular amastigotes were prepared even as previously described (see the section In vitro Activity against L. amazonensis) as well the macrophages and erythrocytes, according to the section Cytotoxicity and Hemolysis Assays. […] Thus, the compounds were singly evaluated in the first row and column and the checkerboard model supported the drug combination in the other wells. Next, the parasites were added and, after incubation, as described above, it was possible to determine the IC50 for the association. Finding the behavior of each association, the CI was calculated from the formula:
# CI=(IC50 compound A associated/IC50 compound A alone)+(IC50 compound B associated/IC50 compound B alone)
# CI values lower, equal and greater than one indicate, respectively, synergistic, additive and antagonistic profile of association tested, according established by [Chou and Talalay (1984)] and [Chou (2010)].
# (§1) Scanning electron microscopy was carried out to analyze the morphologic alterations on cell surface topography. […] After incubation for 72 h, at 25°C, the samples were fixed in 2.5% glutaraldehyde in 0.1 M sodium cacodylate buffer (Electron Microscopy Sciences – EMS®) for 24 h. It used poly-L-lysine (Electron Microscopy Sciences – EMS®) to promote the fixed parasites adhesion over coverslips, which were dehydrated with increasing concentration of ethanol (30, 40, 50, 60, 70, 80, 90, 95, 100% – Sigma–Aldrich®). The samples were critical-point-dried (Baltec SCD-030) in CO2 to remove any water trace, placed on appropriate stub to coat with gold alloy. The micrographs were obtained by analysis in Shimadzu SS-550 scanning electron microscope (SEM).
# [2] = system: Leishmania amazonensis axenic amastigote; assay: In vitro activity against L. amazonensis axenic amastigotes (growth inhibition by cell counting; alone and checkerboard combination); format: cell-based; conditions: isolated drug, 72 h, 32°C, ± SD
# Protocol: Axenic amastigote forms were obtained from L. amazonensis promastigotes. For this, promastigote forms in phase log of growth were cultivated in Warren’s medium, pH 7.2, supplemented with 20% FCS and incubated at 25°C, during 48 h. Next, the parasites were maintained at 30°C, for 24 h, and at 32°C until differentiation in amastigote forms. Axenic amastigotes were maintained in Schneider insect’s medium (Sigma–Aldrich®), pH 4.6, supplemented with 20% of FCS, at 32°C ([Ueda-Nakamura et al., 2001]).
# [3] = system: L. amazonensis intracellular amastigotes; assay: Activity against L. amazonensis intracellular amastigotes in peritoneal macrophages (survival index; alone and checkerboard combination); format: cell-based, Leishmania amazonensis; conditions: isolated drug, 48 h, ± SD, read-out: IC50 Intracellular amastigote
# Protocol: Furthermore, the activity of these drugs against L. amazonensis intracellular amastigotes was also evaluated. For this, intraperitoneal macrophages were harvested from the males BALB/c mice, by injection of cold phosphate-saline buffer (PBS) plus FCS 3% inner the peritoneal cavity. After centrifugation, a suspension of 5 × 10^5 macrophages in RPMI was placed on glass coverslips in 24-wells microplate and incubated during 2 h, at 37°C and 5% CO2 atmosphere, for cellular adhesion. After this period, the wells were washed and the macrophages were infected with L. amazonensis promastigotes in stationary phase (5–6 days) at a ratio of 7 parasites/1 mammalian cell, during 4 h, at 34°C and 5% CO2 tension and then, the tested compounds were added during 48 h ([Kaplum et al., 2016]). At the end of this period, the glass coverslips were subject to fixation with methanol during 10 min and stained with 10% Giemsa stain (GIBCO KaryoMax® Giemsa), for 40 min. Then, a total of 200 macrophages were counted under light microscope, distinguishing infected cells and amastigote parasites. Thereby, the survival index (SI = infected cells percentage × amastigote average per infected macrophage) was calculated considering 100% of survival for the untreated negative control (NC). It was subsequently possible to carry out the comparison with samples treated for IC50 calculation purposes.
# J774.A1 macrophages = assay: Cytotoxicity on J774.A1 macrophages (MTT; alone and checkerboard combination); format: cell-based, Murine; conditions: isolated drug, 48 h, ± SD, read-out: CC50 J774.A1 Macrophage
# Description: (§2) As positive control, it used Triton X (Synth®) surfactant. […] (2010)].
# [4] = system: peritoneal macrophages infected with L. amazonensis; assay: Nitric oxide measurement (DAF-FM DA) on infected macrophages; format: cell-based, BALB/c mice; conditions: IC50 and IC90, 48 h, 34°C
# Protocol: Furthermore, the activity of these drugs against L. amazonensis intracellular amastigotes was also evaluated. For this, intraperitoneal macrophages were harvested from the males BALB/c mice, by injection of cold phosphate-saline buffer (PBS) plus FCS 3% inner the peritoneal cavity. After centrifugation, a suspension of 5 × 10^5 macrophages in RPMI was placed on glass coverslips in 24-wells microplate and incubated during 2 h, at 37°C and 5% CO2 atmosphere, for cellular adhesion. After this period, the wells were washed and the macrophages were infected with L. amazonensis promastigotes in stationary phase (5–6 days) at a ratio of 7 parasites/1 mammalian cell, during 4 h, at 34°C and 5% CO2 tension and then, the tested compounds were added during 48 h ([Kaplum et al., 2016]). […] Then, a total of 200 macrophages were counted under light microscope, distinguishing infected cells and amastigote parasites. Thereby, the survival index (SI = infected cells percentage × amastigote average per infected macrophage) was calculated considering 100% of survival for the untreated negative control (NC). […]
# Promastigote forms and infected macrophages were incubated at 25°C for 72 h and 34°C for 48 h, respectively. […] Fluorescence was measured on fluorometer Perkin-Elmer Victor X3, at λex = 495 nm and λem = 515 nm.
# non-infected macrophages = assay: Nitric oxide measurement (DAF-FM DA) on non-infected macrophages; format: cell-based; conditions: IC50 and IC90
# [5] = system: L. amazonensis promastigote; assay: Detection of lipid droplets using Nile Red dye (fluorometry); format: cell-based, Leishmania amazonensis
# Protocol: Parasites were prepared and standardize in accordance to item 2.8.1. Next, 5 μL of Nile Red (Sigma–Aldrich®) 1 mg/mL methanol were added to treated parasites and incubated during 30 min, at dark and room temperature. Fluorescence was measured on Perkin-Elmer Victor X3 fluorometer, at λex = 485 nm e λem = 535 ([Greenspan et al., 1985]). Nile Red is a phenoxazone dye that fluoresces intensely at yellow–gold color in the presence of triacylglycerols, cholesterol, or cholesterol esters, considered neutral lipids ([Fowler and Greenspan, 1985]).
# [6] = system: L. amazonensis promastigote; assay: Transmission electron microscopy of treated promastigotes; format: cell-based, Leishmania amazonensis; conditions: IC50 and IC90, 72 h, 25°C
# Protocol: In order to evaluate the ultrastructure changes in the treated parasites, promastigote forms were treated and fixed according described above. These samples were post-fixed with 1% OsO4 (Electron Microscopy Sciences – EMS®) and 0.8% potassium ferrocyanide (Electron Microscopy Sciences – EMS®), in the dark, during 60 min, at room temperature. This procedure increases the contrast to link with lipids. The samples were washed in 0.1 M sodium cacodylate buffer and dehydrated in increased concentration of acetone (50, 70, 80, 90, 95, 100% – Sigma–Aldrich®). All acetone content was replaced by cell diffusion for EPON^TM epoxy resin, gradually, and after 48 h, at 60°C, the resin was polymerized. Nanometric cuts (60–70 nm) were obtained on ultramicrotome (Power Tome X RMC Products), contrasted with 5% uranyl acetate (Electron Microscopy Sciences – EMS®) and 2% lead citrate (Electron Microscopy Sciences – EMS®). Finally, the samples were analyzed by transmission electron microscope (TEM) JEOL – JEM 1400.
# [7] = system: L. amazonensis promastigote; parameters: method as in Britta et al. (2014); conditions: ref Britta et al. (2014); cited from earlier work
# [8] = system: L. amazonensis promastigote; parameters: method as in Britta et al. (2014); conditions: ref Britta et al. (2014); cited from earlier work; remark: listed apart in the source
# erythrocytes = assay: Hemolysis assay (hemoglobin release; alone and checkerboard combination); conditions: read-out: CC50 Erythrocytes; isolated drug; defibrinated sheep blood, 6% erythrocyte suspension, 2 h, 37°C; ± SD
# Protocol: (§3) Assessing the possibility of drug-induced hemolysis, the hemolytic activity was evaluated in vitro from defibrinated sheep blood, commercially obtained (Laborclin; lot n° 51109038). Erythrocyte suspension at 6% was prepared by centrifugation in 2,000 × g, for 10 min and placed in 96-wells with the different concentrations of each compound. As positive control, it used Triton X (Synth®) surfactant. After 2 h at 37°C, all samples were centrifuged for 3 min, and the supernatant was harvested to verify the hemoglobin release by the absorbance measured in 540 nm.
# [9] = system: L. amazonensis promastigote; assay: Volume analysis of promastigote forms, flow cytometry (FSC-H); format: cell-based, Leishmania amazonensis; conditions: 24 h; miltefosine 173.32 μM; BZTS + miltefosine 13.86 μM + 37.78 μM; actinomycin D positive control
# Protocol: For these studies, the treated protozoa were incubated during 24 h, at 25°C.
# After to treat 1 × 10^7 promastigote forms with […] actinomycin D (positive control – Sigma–Aldrich®), isolated miltefosine and BZTS with miltefosine, the samples were washed two times with PBS 0.01 M and incubated. Cell volume was measured on BD FACSCalibur flow cytometer and 10,000 events were analyzed by CellQuest Pro software.
# [10] = Cytotoxicity on J774.A1 macrophages (MTT; alone and checkerboard combination); format: cell-based, Murine; conditions: mouse, J774.A1 macrophages, pH 7.6, isolated drug, ± SD, read-out: CC50 J774.A1 Macrophage
# Description: as §2
# [11] = Hemolysis assay (hemoglobin release; alone and checkerboard combination); conditions: sheep, 6% erythrocyte suspension from defibrinated sheep blood
# Protocol: as §3
# [12] = system: L. amazonensis promastigote; assay: Phosphatidylserine exposure (Annexin-V-FITC / PI), flow cytometry; format: cell-based, Leishmania amazonensis; conditions: 24 h; miltefosine 173.32 μM; BZTS 13.86 μM + miltefosine 37.78 μM; CCCP 100 μM
# Protocol: For these studies, the treated protozoa were incubated during 24 h, at 25°C. […] At the end of 24 h, the samples were washed in 0.01 M PBS and resuspended in 100 μL of binding buffer (140 mM NaCl; 5 mM CaCl2; 10 mM HEPES-Na; pH 7.4), followed by the addition of 5 μL of the Annexin-V-FITC conjugated (Molecular Probes®). After 15 min of incubation, 400 μL of binding buffer and 50 μL of PI were added. […] Data acquisition (10,000 events) and analysis were carried out on flow cytometer BD FACSCalibur, equipped with CellQuest Pro software. Necrosis processes were identified by PI fluorescence in the cells while apoptotic cells were labeled with Annexin-V-FITC, regardless of the PI behavior.
# [13] = system: L. amazonensis promastigote; assay: Cell membrane integrity by propidium iodide, flow cytometry; format: cell-based, Leishmania amazonensis; conditions: 24 h, 25°C; miltefosine 173.32 μM; BZTS + miltefosine 13.86 μM + 37.78 μM; digitonin 40 μM
# Protocol: For these studies, the treated protozoa were incubated during 24 h, at 25°C. L. amazonensis promastigote cells were prepared according item 2.7. After incubation, the samples were washed in PBS 0.01 M and incubated with 50 μL of propidium iodide (PI – Sigma–Aldrich®) 2 mg/mL at 25°C, for 5 min. Membrane rupture allows the entrance of PI and its binding to cell DNA. Cell membrane integrity was measured according PI fluorescence, on BD FACSCalibur flow cytometer, in which 10,000 events were evaluated by CellQuest Pro software. Digitonin saponin 40 μM (Sigma–Aldrich®) was used as positive control and the fluorescence measurement were compared with NC fluorescence.
# [14] = system: L. amazonensis promastigote; assay: Mitochondrial transmembrane potential (rhodamine 123), flow cytometry; format: cell-based, Leishmania amazonensis; conditions: 24 h; 2 × IC90
# Protocol: For these studies, the treated protozoa were incubated during 24 h, at 25°C. Parasites were prepared according 2.7.1 item, including positive control. […] At the same way described above, 10,000 events were evaluated on flow cytometer BD FACSCalibur and the data were analyzed by CellQuest Pro software.
# [15] = system: L. amazonensis promastigote; assay: Scanning electron microscopy of treated promastigotes; format: cell-based, Leishmania amazonensis; conditions: IC50 and IC90, 72 h, 25°C
# Protocol: as §1
molecule,measurement,setting,value
4-nitro benzaldehyde thiosemicarbazone derived from S-(-)-limonene [BZTS],IC50,[1],4.16 ± 0.78 µM
same,IC90,[1],13.9 µM
same,IC50,[2],8.04 ± 0.37 µM
same,IC50,[3],6.99 ± 1.22 µM
same,CC50,J774.A1 macrophages,87.5 ± 9.07 µM
same,"NO production, infected macrophages",[4],only in higher concentrations
same,"NO production, non-infected macrophages",non-infected macrophages,induced the NO production
same,Lipid droplets (Nile Red fluorescence) vs NC,"[5]; treated at IC50, 24 h",statistical significance
same,Lipid droplets (Nile Red fluorescence) vs NC,"[5]; treated at IC90, 24 h",statistical significance
same,Ultrastructure changes by TEM,[6],"mitochondrion alterations, like swelling and concentric membranes inner mitochondria"
same,cell volume after BZTS treatment,[7],cell volume decrease
same,Annexin-V-FITC after BZTS treatment,[8],positive results
same,CC50,erythrocytes,> 500 µM
"Cc1c2oc3c(C)ccc(C(=O)N[C@@H]4C(=O)N[C@H](C(C)C)C(=O)N5CCC[C@H]5C(=O)N(C)CC(=O)N(C)[C@@H](C(C)C)C(=O)O[C@@H]4C)c3nc-2c(C(=O)N[C@@H]2C(=O)N[C@H](C(C)C)C(=O)N3CCC[C@H]3C(=O)N(C)CC(=O)N(C)[C@@H](C(C)C)C(=O)O[C@@H]2C)c(N)c1=O [Actinomycin D] (I: T[dV]P[Sar][NMeV] / II: T[dV]P[Sar][NMeV]; ester I:1-I:C, II:1-II:C; linker I:N-II:N via Actinocin(9to1))",cells with volume reduction compared to untreated parasites,[9],51.95%
C[C@@H]1[C@H](O)[C@@H](C)/C=C/C=C/C=C/C=C/C=C/C=C/C=C/[C@H](O[C@@H]2O[C@H](C)[C@@H](O)[C@H](N)[C@@H]2O)C[C@@H]2O[C@](O)(C[C@@H](O)C[C@@H](O)[C@H](O)CC[C@@H](O)C[C@@H](O)CC(=O)O[C@H]1C)C[C@H](O)[C@H]2C(=O)O [Amphotericin B],IC50,[2]; Leishmania amazonensis,0.43 ± 0.19 µM
same,CC50 at 48 h,[10],3.74 ± 0.59 µM
same,CC50 at 2 h,[11],51.8 ± 4.34 µM
"N#CC(C#N)=NNc1cccc(Cl)c1 [CCCP, carbonyl cyanide 3-chlorophenylhydrazone]","cells in late apoptotic process, Annexin-V-FITC and PI fluorescence (upper right quadrant)",[12],39.98%
same,cells with only Annexin-V-FITC label (lower right quadrant),[12],5.25%
"CCCCCCCCCCCCCCCCOP(=O)([O-])OCC[N+](C)(C)C [Miltefosine, hexadecyl-phosphocholine]",IC50,[1]; Leishmania amazonensis,20.8 ± 0.25 µM
same,IC90,[1]; Leishmania amazonensis,86.7 µM
same,IC50,[2]; Leishmania amazonensis,0.79 ± 0.48 µM
same,IC50,"[3]; Leishmania amazonensis, Peritoneal macrophage",1.82 ± 0.2 µM
same,CC50 at 48 h,[10],55.1 ± 1.97 µM
same,PI fluorescence (cells that lost plasma membrane integrity),[13],81.18%
same,cells with volume reduction compared to untreated parasites,[9],10.45%
same,Rh 123 fluorescence intensity (in words),[14],strong decrease
same,"NO production, infected macrophages",[4],NO production increased from low concentration
same,"NO production, non-infected macrophages",non-infected macrophages,induced the NO production
same,Lipid droplets (Nile Red fluorescence) vs NC,"[5]; treated at IC90, 24 h",statistical significance
same,Morphologic alterations by SEM,[15],changes on surface cell and reduction of the flagellum length
same,Ultrastructure changes by TEM,[6],Disruption of cytoplasmic membrane
same,CC50 at 2 h,[11],21.4 ± 0.75 µM
